As usually defined, the EC50 is the concentration that produces a half-maximal response.

In patent publication US20240228504A1, “SUBSTITUTED TRICYCLIC AMIDES, ANALOGUES THEREOF, AND METHODS USING SAME” (Arbutus Biopharma Corporation, priority 2020, published 2024) one finds EC50 data, which are given here for 27 molecules.

The first assay concerns HBV rcDNA in HepDE19 cells. As to the kind of experiment: HepDE19 assay with bDNA quantitation of HBV rcDNA. As to conditions: HepDE19 assay, inhibition of rcDNA formation, bDNA quantitation; read-out: DE-19bDNA EC50. The class given is cell-based, hepatitis B virus.
Regarding `CN(C(=O)c1cc2c(F)cc(F)cc2[nH]1)C1COCc2[nH]c(=O)c3cc(F)c(F)cc3c21` (single isomer, unassigned) [Compound 44, N-(8,9-Difluoro-6-oxo-1,4,5,6-tetrahydro-2H-pyrano[3,4-c]isoquinolin-1-yl)-4,6-difluoro-N-methyl-1H-indole-2-carboxamide], the concentration for a half-maximal effect (EC50) is 10 nM.
For the molecule `CN(C(=O)c1cc2c(F)c(F)ccc2[nH]1)C1COCc2[nH]c(=O)c3cc(F)c(F)cc3c21` (single isomer, unassigned) [Compound 45, N-(8,9-Difluoro-6-oxo-1,4,5,6-tetrahydro-2H-pyrano[3,4-c]isoquinolin-1-yl)-4,5-difluoro-N-methyl-1H-indole-2-carboxamide], the EC50 is 310 nM.
Take `CN(C(=O)c1cc2c(F)c(F)ccc2[nH]1)C1COCc2[nH]c(=O)c3cc(F)c(F)cc3c21` (single isomer, unassigned) [Compound 46, N-(8,9-Difluoro-6-oxo-1,4,5,6-tetrahydro-2H-pyrano[3,4-c]isoquinolin-1-yl)-4,5-difluoro-N-methyl-1H-indole-2-carboxamide]: the EC50 was found to be 5 nM.
Take `CN(C(=O)c1cc2c([nH]1)CCC(F)(F)C2)C1COCc2[nH]c(=O)c3cc(F)c(F)cc3c21` (single isomer, unassigned) [Compound 47, N-(8,9-Difluoro-6-oxo-1,4,5,6-tetrahydro-2H-pyrano[3,4-c]isoquinolin-1-yl)-5,5-difluoro-N-methyl-4,5,6,7-tetrahydro-1H-indole-2-carboxamide]: the EC50 stood at 20 nM.
The same measure, in the same setting: the result for `CN(C(=O)c1cc2c([nH]1)CCC(F)(F)C2)C1COCc2[nH]c(=O)c3cc(F)c(F)cc3c21` (single isomer, unassigned) [Compound 48, N-(8,9-Difluoro-6-oxo-1,4,5,6-tetrahydro-2H-pyrano[3,4-c]isoquinolin-1-yl)-5,5-difluoro-N-methyl-4,5,6,7-tetrahydro-1H-indole-2-carboxamide] reads 770 nM; that for `CN(C(=O)c1cc2cc(F)c(F)cc2[nH]1)C1COCc2[nH]c(=O)c3cc(F)ccc3c21` (single isomer, unassigned) [Compound 49, 5,6-Difluoro-N-(8-fluoro-6-oxo-1,4,5,6-tetrahydro-2H-pyrano[3,4-c]isoquinolin-1-yl)-N-methyl-1H-indole-2-carboxamide], 2100 nM.
Regarding `CN(C(=O)c1cc2cc(F)c(F)cc2[nH]1)C1COCc2[nH]c(=O)c3cc(F)ccc3c21` (single isomer, unassigned) [Compound 50, 5,6-Difluoro-N-(8-fluoro-6-oxo-1,4,5,6-tetrahydro-2H-pyrano[3,4-c]isoquinolin-1-yl)-N-methyl-1H-indole-2-carboxamide], the EC50 was 10 nM.
In the case of `CN(C(=O)c1cc2ccccc2[nH]1)C1CNCc2[nH]c(=O)c3cc(F)c(F)cc3c21` (single isomer, unassigned) [Compound 54, N-(8,9-Difluoro-6-oxo-1,2,3,4,5,6-hexahydrobenzo[c][1,7]naphthyridin-1-yl)-N-methyl-1H-indole-2-carboxamide], the EC50 turned out to be 850 nM.
Same read-out and setting: then `CN(C(=O)c1cc2ccccc2[nH]1)C1CNCc2[nH]c(=O)c3cc(F)c(F)cc3c21` (single isomer, unassigned) [Compound 55, N-(8,9-Difluoro-6-oxo-1,2,3,4,5,6-hexahydrobenzo[c][1,7]naphthyridin-1-yl)-N-methyl-1H-indole-2-carboxamide], with 10 nM.
On the same count and under the same terms, then `CN1Cc2[nH]c(=O)c3cc(F)ccc3c2C(N(C)C(=O)c2cc3ccccc3[nH]2)C1` (single isomer, unassigned) [Compound 60, N-(8-Fluoro-3-methyl-6-oxo-1,2,3,4,5,6-hexahydrobenzo[c][1,7]naphthyridin-1-yl)-N-methyl-1H-indole-2-carboxamide], with 5900 nM; and `CN1Cc2[nH]c(=O)c3cc(F)ccc3c2C(N(C)C(=O)c2cc3ccccc3[nH]2)C1` (single isomer, unassigned) [Compound 61, N-(8-Fluoro-3-methyl-6-oxo-1,2,3,4,5,6-hexahydrobenzo[c][1,7]naphthyridin-1-yl)-N-methyl-1H-indole-2-carboxamide], with 2300 nM.
`CN1Cc2[nH]c(=O)c3cc(F)c(F)cc3c2C(N(C)C(=O)c2cc3ccccc3[nH]2)C1` (single isomer, unassigned) [Compound 62, N-(8,9-Difluoro-3-methyl-6-oxo-1,2,3,4,5,6-hexahydrobenzo[c][1,7]naphthyridin-1-yl)-N-methyl-1H-indole-2-carboxamide]: the EC50 was determined as 5100 nM.
Still for that read-out and setting: then `CN1Cc2[nH]c(=O)c3cc(F)c(F)cc3c2C(N(C)C(=O)c2cc3ccccc3[nH]2)C1` (single isomer, unassigned) [Compound 63, N-(8,9-Difluoro-3-methyl-6-oxo-1,2,3,4,5,6-hexahydrobenzo[c][1,7]naphthyridin-1-yl)-N-methyl-1H-indole-2-carboxamide], with 170 nM.
Take `CC(=O)N1Cc2[nH]c(=O)c3cc(F)ccc3c2C(N(C)C(=O)c2cc3ccccc3[nH]2)C1` (single isomer, unassigned) [Compound 68, N-(3-Acetyl-8-fluoro-6-oxo-1,2,3,4,5,6-hexahydrobenzo[c][1,7]naphthyridin-1-yl)-N-methyl-1H-indole-2-carboxamide]: the EC50 was found to be 5500 nM.
As for `CC(=O)N1Cc2[nH]c(=O)c3cc(F)ccc3c2C(N(C)C(=O)c2cc3ccccc3[nH]2)C1` (single isomer, unassigned) [Compound 69, N-(3-Acetyl-8-fluoro-6-oxo-1,2,3,4,5,6-hexahydrobenzo[c][1,7]naphthyridin-1-yl)-N-methyl-1H-indole-2-carboxamide], the EC50 is 21000 nM.
With `CN(C(=O)c1cc2ccccc2[nH]1)C1CNCc2[nH]c(=O)c3cc(F)ccc3c21` (single isomer, unassigned) [Compound 77, N-(8-Fluoro-6-oxo-1,2,3,4,5,6-hexahydrobenzo[c][1,7]naphthyridin-1-yl)-N-methyl-1H-indole-2-carboxamide], the 50% effective concentration (EC50) was found to be 150 nM.
Same read-out and setting: the result for `CN(C(=O)c1cc2ccccc2[nH]1)C1CNCc2[nH]c(=O)c3cc(F)ccc3c21` (single isomer, unassigned) [Compound 78, N-(8-Fluoro-6-oxo-1,2,3,4,5,6-hexahydrobenzo[c][1,7]naphthyridin-1-yl)-N-methyl-1H-indole-2-carboxamide] reads 8100 nM.
For `CN(C(=O)c1cc2ccccc2[nH]1)C1CN(CCO)Cc2[nH]c(=O)c3cc(F)ccc3c21` (single isomer, unassigned) [Compound 80, N-(8-Fluoro-3-(2-hydroxyethyl)-6-oxo-1,2,3,4,5,6-hexahydrobenzo[c][1,7]naphthyridin-1-yl)-N-methyl-1H-indole-2-carboxamide], the EC50 was determined as 6300 nM.
Still for that read-out and setting: then `CC(=O)N1Cc2[nH]c(=O)c3cc(F)c(F)cc3c2C(N(C)C(=O)c2cc3ccccc3[nH]2)C1` (single isomer, unassigned) [Compound 81, N-(3-Acetyl-8,9-difluoro-6-oxo-1,2,3,4,5,6-hexahydrobenzo[c][1,7]naphthyridin-1-yl)-N-methyl-1H-indole-2-carboxamide], with 14000 nM; and `CC(=O)N1Cc2[nH]c(=O)c3cc(F)c(F)cc3c2C(N(C)C(=O)c2cc3ccccc3[nH]2)C1` (single isomer, unassigned) [Compound 82, N-(3-Acetyl-8,9-difluoro-6-oxo-1,2,3,4,5,6-hexahydrobenzo[c][1,7]naphthyridin-1-yl)-N-methyl-1H-indole-2-carboxamide], with 3500 nM.
On to `CN(C(=O)c1cc2ccccc2[nH]1)C1CN(CCO)Cc2[nH]c(=O)c3cc(F)c(F)cc3c21` (single isomer, unassigned) [Compound 89, N-(8,9-Difluoro-3-(2-hydroxyethyl)-6-oxo-1,2,3,4,5,6-hexahydrobenzo[c][1,7]naphthyridin-1-yl)-N-methyl-1H-indole-2-carboxamide], for which the EC50 was 7900 nM.
Take `CN(C(=O)c1cc2ccccc2[nH]1)C1CN(CCO)Cc2[nH]c(=O)c3cc(F)c(F)cc3c21` (single isomer, unassigned) [Compound 90, N-(8,9-Difluoro-3-(2-hydroxyethyl)-6-oxo-1,2,3,4,5,6-hexahydrobenzo[c][1,7]naphthyridin-1-yl)-N-methyl-1H-indole-2-carboxamide]: the EC50 amounted to 500 nM.
On the same count and under the same terms, then `CN(C(=O)c1cc2cc(F)ccc2[nH]1)C1CNCc2[nH]c(=O)c3cc(F)c(F)cc3c21` (single isomer, unassigned) [Compound 101, N-(8,9-Difluoro-6-oxo-1,2,3,4,5,6-hexahydrobenzo[c][1,7]naphthyridin-1-yl)-5-fluoro-N-methyl-1H-indole-2-carboxamide], with 10 nM; and `CN(C(=O)c1cc2cc(F)ccc2[nH]1)C1CNCc2[nH]c(=O)c3cc(F)c(F)cc3c21` (single isomer, unassigned) [Compound 102, N-(8,9-Difluoro-6-oxo-1,2,3,4,5,6-hexahydrobenzo[c][1,7]naphthyridin-1-yl)-5-fluoro-N-methyl-1H-indole-2-carboxamide], with 1800 nM.
The same measure, in the same setting: the result for `CN(C(=O)c1cc2c(F)cccn2c1)C1CSCc2[nH]c(=O)c3cc(F)c(F)cc3c21` (single isomer, unassigned) [Compound 103, N-(8,9-Difluoro-6-oxo-1,4,5,6-tetrahydro-2H-thiopyrano[3,4-c]isoquinolin-1-yl)-8-fluoro-N-methylindolizine-2-carboxamide] reads 2500 nM.
`CN(C(=O)c1cc2c(F)cccn2c1)C1CSCc2[nH]c(=O)c3cc(F)c(F)cc3c21` (single isomer, unassigned) [Compound 104, N-(8,9-Difluoro-6-oxo-1,4,5,6-tetrahydro-2H-thiopyrano[3,4-c]isoquinolin-1-yl)-8-fluoro-N-methylindolizine-2-carboxamide]: the EC50 turned out to be 10 nM.

The same assay, now with this note: Hepatitis B virus, HepDE19, HepDE19 assay, inhibition of rcDNA formation, bDNA quantitation; read-out: DE-19bDNA EC50.
On to `CN(C(=O)c1cc2ccccc2[nH]1)C1CN(CCO)Cc2[nH]c(=O)c3cc(F)ccc3c21` (single isomer, unassigned) [Compound 79, N-(8-Fluoro-3-(2-hydroxyethyl)-6-oxo-1,2,3,4,5,6-hexahydrobenzo[c][1,7]naphthyridin-1-yl)-N-methyl-1H-indole-2-carboxamide], for which the EC50 stood at 10000 nM.
